Patent publication US8129532B2, “Amino(oligo)thiophene dyes, preparation thereof, and optical methods of use” (The University of Connecticut, priority 2007, dated 2012)
Several values for one entry are separate records, joined by “and”; a condition that tells them apart may be missing. Equal entries are not always repeated.

Legend:
membrane potential = details: cited from earlier work
[1] = tested on: NIE-115 mouse neuroblastoma; assay: Time-dependence (kinetics) of SHG and 2PF signal change after voltage-clamp step; type: cell-based; details: time resolution 5 ms
Excerpt: For full details of our non-linear imaging microscope, we refer the reader to previously published descriptions. A. C. Millard, P. J. Campagnola, W. Mohler, A. Lewis, and L. M. Loew, “Second Harmonic Imaging Microscopy,” Meth. Enzymol. 361, 47-69 (2003); Millard, A. C., L. Jin, and L. M. Loew, “Second Harmonic Generation Imaging Microscopy with a High Power Ultrafast Fiber Laser,”Commercial and Biomedical Applications of Ultrafast Lasers. 5714-5716, 92-98 (2005); A. C. Millard, L. Jin, M.-D. Wei, J. P. Wuskell, A. Lewis, and L. M. Loew, “Sensitivity of Second Harmonic Generation from Styryl Dyes to Transmembrane Potential,” Biophys. J. 86, 1169-1176 (2004). Our current microscope combines a Fluoview (Olympus) scan-head and an Axiovert (Zeiss) inverted microscope constructed for multiple imaging methodologies including wide-field, one-photon excitation fluorescence imaging, as well as SHG and 2PF imaging. Our laser sources include a Mira (Coherent) Ti:sapphire laser and a Femtopower (Fianium) fiber laser operating at 1064 nm. Millard, A. C., L. Jin, and L. M. Loew, “Second Harmonic Generation Imaging Microscopy with a High Power Ultrafast Fiber Laser,”Commercial and Biomedical Applications of Ultrafast Lasers. 5714-5716, 92-98 (2005). For excitation, we routinely use an IR-Achroplan (Zeiss) 40×, 0.8 NA water-immersion objective though for shorter wavelengths we also use an A-Plan (Zeiss) 40×, 0.65 NA air objective. Fluorescence is imaged (for linear imaging) or collected (for non-linear imaging) back through the excitation objective, while SHG is collected in the forward, transmitted light direction by a condenser, either 0.8 NA or 0.55 NA (Zeiss). For optimal collection, the numerical aperture of the condenser should be at least 1/√2 of the numerical aperture of the excitation objective (L. Moreaux, O. Sandre, S. Charpak, M. Blanchard-Desce, and J. Mertz, “Coherent Scattering in Multi-Harmonic Light Microscopy,” Biophys. J. 80, 1568-1574 (2001); L. Moreaux, O. Sandre, and J. Mertz. “Membrane Imaging by Second Harmonic Generation Microscopy,” J. Opt. Soc. Am. B. 17, 1685-1694 (2000)), though in practice a condenser of slightly lower numerical aperture will often suffice. Since the wavelength of second harmonic light is precisely half that of the excitation light, the choice of filter for SHG imaging is greatly simplified and the primary concern is the blocking of the excitation light that is also transmitted through the sample as well as fluorescence that is emitted forwards.
NIE-115 mouse neuroblastoma were cultured in DMEM with 10% fetal bovine serum and 1% antibiotic-antimycotic (Invitrogen, Carlsbad, Calif.) in a 60 mm plastic dish (353002, Becton Dickinson, Franklin Lakes, N.J.). The culture was maintained at 37° C. with 5% CO2 for a period of 48 hours prior to experimentation.
For experimentation the growth medium was replaced with 3 mL of Earle's Balanced Salt Solution (EBSS, Sigma, St. Louis, Mo.) with 20 mM HEPES (Merck Biosciences AG, Laufelfingen, Switzerland). The internal buffer, injected into the patch pipette, was a potassium aspartate (140 mM, Sigma, St. Louis, Mo.), sodium chloride (5 mM, Sigma, St. Louis, Mo.) and HEPES (10 mM) solution at a pH of 7.35. The pH was adjusted with potassium hydroxide and hydrochloric acid.
For characterizing the voltage-sensitivity of SHG and 2PF, we used a slow (˜0.1 Hz) switching protocol as previously described (A. C. Millard, P. J. Campagnola, W. Mohler, A. Lewis, and L. M. Loew, “Second Harmonic Imaging Microscopy,” Meth. Enzymol. 361, 47-69 (2003); Millard, A. C., L. Jin, and L. M. Loew, “Second Harmonic Generation Imaging Microscopy with a High Power Ultrafast Fiber Laser,” Commercial and Biomedical Applications of Ultrafast Lasers. 5714-5716, 92-98 (2005); A. C. Millard, L. Jin, M.-D. Wei, J. P. Wuskell, A. Lewis, and L. M. Loew, “Sensitivity of Second Harmonic Generation from Styryl Dyes to Transmembrane Potential,” Biophys. J. 86, 1169-1176 (2004)) with a 50 mV step. […]

[2] = One-photon absorption and emission spectra in multilamellar lipid vesicles, water and ethanol; type: physicochemical; details: for 1PF Abs. Max / 1PF Em. Max: one photon, soybean multi-lamellar lipid vesicles
Excerpt: […] The column indicating relative signal change for one-photon fluorescence also lists the excitation light source used and the lower bounds of the long-pass emission detected.
Absorption and emission spectra were obtained for a series of dyes with different acceptors: pyridinium (PY-1261), quinolinium (PY-212), and acridinium (PY-2240).

[3] = tested on: NIE-115 mouse neuroblastoma; assay: SHG and 2PF voltage sensitivity, 50 mV step, slow switching protocol on patch-clamped neuroblastoma cell; type: cell-based; details: comparator named in the sentence (PY-1266; PY-1268)
Excerpt: (§1) For full details of our non-linear imaging microscope, we refer the reader to previously published descriptions. A. C. Millard, P. J. Campagnola, W. Mohler, A. Lewis, and L. M. Loew, “Second Harmonic Imaging Microscopy,” Meth. Enzymol. 361, 47-69 (2003); Millard, A. C., L. Jin, and L. M. Loew, “Second Harmonic Generation Imaging Microscopy with a High Power Ultrafast Fiber Laser,”Commercial and Biomedical Applications of Ultrafast Lasers. 5714-5716, 92-98 (2005); A. C. Millard, L. Jin, M.-D. Wei, J. P. Wuskell, A. Lewis, and L. M. Loew, “Sensitivity of Second Harmonic Generation from Styryl Dyes to Transmembrane Potential,” Biophys. J. 86, 1169-1176 (2004). Our current microscope combines a Fluoview (Olympus) scan-head and an Axiovert (Zeiss) inverted microscope constructed for multiple imaging methodologies including wide-field, one-photon excitation fluorescence imaging, as well as SHG and 2PF imaging. Our laser sources include a Mira (Coherent) Ti:sapphire laser and a Femtopower (Fianium) fiber laser operating at 1064 nm. […] Fluorescence is imaged (for linear imaging) or collected (for non-linear imaging) back through the excitation objective, while SHG is collected in the forward, transmitted light direction by a condenser, either 0.8 NA or 0.55 NA (Zeiss). […]

[4] = One-photon fluorescence relative signal change per 100 mV; details: excitation / long-pass emission (nm) given
Excerpt: The left-most data columns of Table 1 are the absorption and emission maxima for one photon fluorescence in soybean multi-lamellar lipid vesicles used to mimic the membrane environment. The column indicating relative signal change for one-photon fluorescence also lists the excitation light source used and the lower bounds of the long-pass emission detected.

neuroblastoma cells = assay: SHG and 2PF imaging of stained neuroblastoma cells, 1064 nm fiber laser; type: cell-based, mouse; details: 1064 nm excitation
Excerpt: as §1

dye-stained cells = assay: Confocal fluorescence intensity and bleaching of dye-stained cells; type: cell-based; details: compared with PY-1261
[5] = compared with unfluorinated PY-1261

Row | 1PF Abs. Max [2] | 1PF Em. Max [2] | SMILES | 1PF Change (ΔF/F-100 mv) [4] | other results
1 | 530 nm | 676 nm | CC[N+](CC)(CC)CCC[n+]1ccc(/C=C/c2ccc(-c3ccc(N(C)C)s3)s2)cc1 [PY-1282] | 8.0E−002; 640/>715 ΔF/F-100 mv | SHG Kinetics (exponential time constant) [1]: 16 ± 1 ms; SHG signal sensitivity relative to another dye [3]: three-fold increase
2 | 536 nm | 588 nm | CCCCN(CCCC)c1ccc(/C=C/c2cc[n+](CCC[N+](CC)(CC)CC)cc2)s1 [PY-1284] | 1.5E−002; 555/>610 ΔF/F-100 mv | 2PF and SHG image signal strength (neuroblastoma cells): weak
3 | 565 nm | 706 nm | CCN(CC)c1ccc(-c2ccc(/C=C(\F)c3cc[n+](CCC[N+](CC)(CC)CC)cc3)s2)s1 [PY-3008] | 1.0E−001; 650/>715 ΔF/F-100 mv | absorbance extinction coefficient of dye-stained lipid vesicle suspensions [2, 5]: increases; effect of fluorination on spectra [2, 5]: shifts the spectra to the red; half time for bleaching of dye-stained cells (dye-stained cells): increases the half time for bleaching; intensity of fluorescence of stained cells (dye-stained cells; confocal microscope): increases

Second part, the compound before the results:

Row | SMILES | 1PF Abs. Max [2] | 1PF Em. Max [2] | 1PF Change (ΔF/F-100 mv) [4] | other results
4 | CCN(CC)c1ccc(/C=C/C=C/C=C/c2cc[n+](CCC[N+](CC)(CC)CC)cc2)cc1.[Br-].[Br-] [FM4-64] |  |  |  | SHG sensitivity to membrane potential (membrane potential; literature): < 10 % per 100 mV and 7.5-10 % per 100 mV
5 | CCCCN(CCCC)c1ccc2cc(/C=C/c3cc[n+](CCCS(=O)(=O)[O-])cc3)ccc2c1 [di-4-ANEPPS] |  |  |  | SHG Kinetics (exponential time constant) (membrane potential; literature (Millard 2005)): 70.6 ms
